Reference: a melting point compilation (Tetko et al.; mined from patent text by program, amines drawn as free bases though some values may be those of a salt)
Residues, ends and D or L forms follow the SMILES beside them. *: point of attachment. Piv = CC(C)(C)C(=O)*

Structure (SMILES)	melting point [°C]
Nc1ccccc1C(=O)NCCN1CCC(Nc2nc3ccccc3n2Cc2ccc(F)cc2)CC1	172
CCOC(=O)c1ccc(C=C(C)C=O)cn1	72 to 73
CC1(C)Cc2c(N)c(Cl)cc(-c3nc(C4CCN(CCCC#N)CC4)no3)c2O1	151
OC(CNC1=NCCN1)c1ccccc1 (stereo not given)	147 to 149
COc1ccc(C2=NN(C3CCCC3)C(=O)[C@H]3CC=CC[C@@H]23)cc1OC (relative stereo)	131 to 133
O=Cc1cn(-c2ccccc2)nc1O	196 to 197
COC(=O)c1cnc(C)n1C	38 to 40
CCCn1c(=O)nc(SC)c2c1ncn2C	225 to 226
CCNC(=O)[C@@H]1CCCN1C(=O)[C@H](C)NC(=O)C(C)(C)C (Piv-Ala-Pro-NHEt)	94 to 96
COc1ccc(NC(=O)c2ccc(C(C)(C)C)cc2)c([N+](=O)[O-])c1	103 to 107
CN1C(=O)c2[nH]c3ccccc3c2Oc2ccccc21	247 to 248
Nc1ccc(C(=O)N2CCNC(=O)C2c2cccs2)cc1 (stereo not given)	181 to 182
CCN(CC)CC1CCCN(CCNC(=O)N2c3cc(Cl)ccc3C(=O)Nc3cccnc32)C1 (stereo not given)	125
O=c1c2cnc(-c3ccccc3)nc2sn1CCc1ccccc1	144 to 147
Cc1nn(C)c(Cl)c1S(=O)(=O)N1CCC2(CC1)CSC1=C(O2)c2ccccc2C(=O)C1=O	247 to 249
O=C1N(c2cc(Cl)cc(Cl)c2)C(=O)C2(Cc3ccc(Br)cc3)CCC(c3ccccc3)N12 (stereo not given)	72.4
COc1ccc2c(c1)CC[C@@H](Br)[C@@H]2O (relative stereo)	80 to 82
Cc1ccc2[nH]c(=O)oc2c1	144 to 145
CC(=O)CCc1ccc(OCCCC(=O)O)cc1	97 to 99
CN(CC#N)S(=O)(=O)c1cc(-n2c(=O)cc(C(F)(F)F)n(C)c2=O)c(F)cc1Cl	155 to 157
COc1ccc(CCc2oc3cccc(OC(C)=O)c3c2C)cc1	66 to 69
Clc1c[nH]c2ncnc(N3CCCCC3)c12	170 to 172
O=c1[nH]c2ccccc2c2cc(CC(=S)N3CCOCC3)nn12	273 to 275
CNC(=O)Nc1ccc2c(c1)C(CN1CCC(c3ccc(F)cc3)CC1)CC2 (stereo not given)	170 to 173
O=C(Cn1cc(Cl)cnc1=O)c1ccc([N+](=O)[O-])cc1	232 to 236

Structure (SMILES)	melting point [°C]
O=c1oc(=O)n(-c2ccccc2)c2ccccc12	183
CCOP(=S)(OCC)Oc1nsc(SCc2ccccc2)n1	< 50
COc1nc2nc(SCc3ccccc3)nn2cc1C	145 to 146
COc1cc(CO)c2oc(-c3ccc(OC)c(F)c3)cc2c1	128 to 130
O=C(Nc1ccc(Oc2ccnc(NCCN3CCCC3)n2)c2ccccc12)c1cc(F)cc(N2CCOCC2)c1	95 to 97
CSC(=O)c1ccccc1NC1CCN(C)CC1	64 to 65
CN(C)CCCC1(C(=O)O)CCCCC1(O)c1ccccc1 (stereo not given)	144 to 145
CC(C)(C)OC(=O)N1C[C@@H](O)C[C@H]1C(=O)OCc1ccccc1	72 to 73
CC(C)(C(=O)Nc1cccc(C(F)(F)F)c1)N1COC(C(F)F)=C(c2ccccc2)C1=O	58 to 60
CCOC(=O)CC1(S(N)(=O)=O)c2ccccc2-c2ccc(Cl)cc21 (stereo not given)	246 to 248
COc1ccc(-c2ccccc2)c2sc(N)nc12	207 to 208
COC(=O)c1ccc(-c2ccc3c(c2)CCN(C2CCN(C4CCC4)C2)C3=O)c(F)c1 (stereo not given)	75
COc1ccc(OC(CCCN2CC3CCC(C2)N3C(=O)OC(C)(C)C)c2ccc(C#N)cc2)cc1OC (stereo not given)	38 to 41
Cc1nc2ccc(C#N)cc2[nH]1	238 to 240
O=P(O)(CO)c1ccccc1	134 to 136
Nc1ncc(-c2ccnc(N3CCOCC3)n2)c2ccccc12	255 to 256
COCCNC(=O)c1ccc2c(c1)C=CC(C)(C)O2	57 to 60
C=C(C)Cc1c(O)c2c(c3c1CC(C)(C)N=C3c1ccccc1)CC(C)(C)O2	196 to 198
CCOC(=O)c1c(C(F)(F)F)nn(-c2c(Cl)cc(Cl)cc2Cl)c1N	114 to 116
CC(C)(C)c1ccc(Cn2cnc3c(-c4ccco4)ncnc32)cc1	185 to 187
Clc1cccc(Nc2ccccc2)c1	128 to 138
CNC(=O)[C@@H]1CC[C@H](C(=O)O)N1Cc1ccccc1 (relative stereo)	190 to 192
COCc1cccc(-c2coc3ccc(-c4nnc(C)o4)cc23)c1	111 to 112
c1ccc(-c2ccnc(-c3ccc4cc[nH]c4c3)n2)cc1	160
CNC(=O)[C@H](Cc1cncn1C)NC(=O)C(Cc1cccc2ccccc12)Cc1cccc2ccccc12	250 to 252

Structure (SMILES)	melting point [°C]
Nc1cc(C(F)(F)C(F)(F)OC(F)(F)C(F)(F)OC(F)(F)C(F)(F)c2ccc(O)c(N)c2)ccc1O	150 to 152
CC(C)(CON=Cc1ccccc1Cl)C(=O)O	78 to 80
CC(C)c1cc([N+](=O)[O-])ccc1OCC1CO1 (stereo not given)	60 to 62
CS(=O)(=O)c1cc(C(=O)O)cc(N=Cc2ccco2)c1Cl	221
CCOC(=O)c1ccc(OCC(=NO)c2ccc3c(c2)C(C)(C)CCC3(C)C)cc1O	130
COc1ccc(C(=O)NCCCCCCCCNC(=O)c2ccc(OC)cc2)cc1	175 to 176
CC(C)NC1=NS(=O)(=O)c2ccc(Cc3nc(C4CC4)no3)cc2N1	255 to 259
O=[N+]([O-])c1ccc(NCCc2ccccc2)cc1	57 to 59
O=C(NCCc1ccc(Cl)cc1)C1Cc2ccccc2N1S(=O)(=O)c1ccc(-c2ccc(F)cc2)cc1 (stereo not given)	126
CC(C)(CNC(=O)Cc1ccccc1)NCC(O)c1cc(Cl)c(NC(=O)C(C)(C)C)c(Cl)c1 (stereo not given)	83 to 85
O=C(Cc1ccc(CC(=O)Oc2cc(O)cc(O)c2)cc1)Oc1cc(O)cc(O)c1	220 to 225
Cc1[nH]cnc1CSCCNc1nnc(Cc2cccnc2)c(=O)[nH]1	232 to 233
COCc1nn(C)c(O)c1C(=O)c1ccc(S(C)(=O)=O)c(COC)c1C	100 to 104
COCCc1cnc(Cl)nc1	25 to 26
COc1ccc(-c2[nH]nc3c2C(=O)c2c(NC(=O)C4CCC4)cccc2-3)cc1	297
COc1cc(CC(C#N)=CNc2ccccc2)c2c(c1OC)OC(C1CC1)C=C2 (racemic)	140
N=C(NO)c1ccc(-c2ccc(-c3ccc(C(=N)NO)o3)o2)nc1	248 to 250
CCN(CC)CCC1CCCN(C(=O)N2c3ccccc3NC(=O)c3cccnc32)C1 (stereo not given)	110 to 113
CCOC(=O)C(Cc1ccc(Cl)cc1)NC(=S)Nc1ccc(C(C)C)cc1 (stereo not given)	73 to 75
CCOC(=O)c1c(-c2ccccc2Cl)c2cc(C(C)C)ccc2n(C)c1=O	140 to 142
CN(C)C(=O)NC(=O)C(C)(C)Br	98 to 100
CC(C)(OCc1cc2cc(Cl)ccc2n1S(=O)(=O)c1ccc2c(c1)CCO2)C(=O)O	130 to 132
O=C(O)C(=O)CC(=O)c1cccn1Cc1ccccc1	150 to 151
CC(C)(C)C(=O)NS(=O)(=O)c1cccc(N)c1	147 to 150
C=CC(=O)Nc1ccc2ncnc(Nc3cccc(Br)c3)c2c1	258 to 261

Structure (SMILES)	melting point [°C]
NS(=O)(=O)CS(=O)(=O)c1ccc(SCCO)cc1	136 to 137
CCCCCCCCCCCCCCCCCC(=O)NC#N	74 to 75
CCSc1cc(C#N)c(Oc2ccc(Cl)c(Cl)c2)cn1	79 to 81
CCN(CC)CC(O)c1cccc2ccoc12 (stereo not given)	116
Fc1ccc(-c2[nH]cc(-c3c(F)c(F)nc(F)c3F)c2-c2ccncc2)cc1	> 300
CCCCNN1C2=C(C=C(C)C1C(=O)OCC)CCC(=O)N2 (stereo not given)	186 to 188
CN1C(=O)Nc2ccccc2C12NC(=O)N(COCc1ccccc1)C2=O (stereo not given)	226 to 227
CCc1nn(CCNC(=O)COC)c(CC)c1Oc1cc(Cl)cc(Cl)c1	75 to 76
CC(=O)O[C@@H](Cc1ccc(OCCN2CCC(C)(C)c3cc(C(=O)c4ccccc4)ccc32)cc1)C(=O)O	60 to 62
CC(=O)ON1CC(NC(=O)OCc2ccccc2)C1=O (stereo not given)	130 to 131
COC(=O)c1cc2cnc(SC)nc2n(Cc2ccc(OC)c(Cl)c2)c1=O	191 to 193
CC=CCNc1cc(C(=O)O)cc(S(N)(=O)=O)c1Sc1ccc(N)cc1	242
COc1ccc(Cl)cc1N1CCN(CCCN2C(=O)c3ccccc3C2=O)CC1	131 to 133
O=C(COc1ccccc1)NCCc1ccc(S(=O)(=O)NC(=O)c2ccc(C(=O)NCCO)nc2)cc1	155 to 156
CS(=O)(=O)N(c1cccc(C(=O)Nc2nccs2)c1)C1CN(C(c2ccc(Cl)cc2)c2ccc(Cl)cc2)C1	244
OCc1cccc(-c2nn(-c3ccc(F)cc3F)c3c2C2CCC3C2)c1 (stereo not given)	113 to 115
CCC1(C)C(=O)c2c(cc(OCC(=O)O)c(Cl)c2Cl)C1c1ccccc1 (stereo not given)	192
CCN(CC)CC1CCCCN1CC(=O)N1c2ccccc2C(=O)Nc2ccc(Cl)nc21 (stereo not given)	191 to 192
CS(=O)(=O)N(Cl)C(=O)c1cc(Oc2ccc(C(F)(F)F)cc2Cl)ccc1[N+](=O)[O-]	160 to 161
CNc1nn(-c2ccc(C)c3c2OC(C)(C)C3)c(=O)o1	183 to 184
CCOC(=O)C=Cc1cc(OC)c(OC)c([N+](=O)[O-])c1	87 to 88
CC(C)(C)OC(=O)NCCON=C(c1ccccc1)c1cc2ccncc2[nH]1	84 to 88
COc1cc2c(Nc3ccc(Sc4nccn4C)c(Cl)c3)c(C#N)cnc2cc1-c1ccc(CN2CCOCC2)cc1	260 to 262
COc1c(-c2cc3c(s2)CCCC3=O)ccc2c(=O)c(C(=O)O)cn(C3CC3)c12	266 to 267
CCCCN(CCCC)c1ccc(C=CC2=CC(=CC=CC3=C(C#N)C(=C(C#N)C#N)OC3(C)C)CC(C)(C)C2)c(OC)c1	228 to 230
